# Source: patent US20240082406A1, “BENZOHETEROCYCLE SUBSTITUTED TETRAHYDROISOQUINOLINE COMPOUND” (SHANGHAI JEMINCARE PHARMACEUTICAL CO., LTD, priority 2020, published 2024)
# Legend:
# Sprague-Dawley rats [1] = assay: Inhibition of phosphate and sodium absorption in the intestine of rats by a single dose; format: in vivo, rat; conditions: normal rats
# Procedure: Compound D1-P1-S was evaluated by measuring urinary phosphorus, urinary sodium concentration and fecal form.
# Six-week-old Sprague-Dawley rats were purchased from Beijing Vital River Laboratory Animal Technology Co., Ltd. Two animals per cage were placed in SPF class animal rooms for acclimatization for about a week. Throughout the study period, animals were fed feed and water freely and the light cycle was 12 h light/12 h dark. Animal groups: vehicle group, n=5; tenapanor 0.3 mg/kg group, n=5; D1-P1-S 0.03 mg/kg group, n=5; D1-P1-S 0.1 mg/kg, n=5; D1-P1-S 0.3 mg/kg, n=5; D1-P1-S1.0 mg/kg, n=5.
# On the day of the experiment, after 8 hours of fasting, the animals were administered the test compound or solvent (0.5% Tween 80+99.5% distilled water) by gavage. The animals were then transferred into metabolic cages for single-cage feeding, and the feed was restored. After 16 hours of administration, urine samples were collected and food consumption was recorded, and the fecal form in the collection funnel was evaluated by two independent observations. Standard for fecal form score: 1, normal pellets; 2, slightly soft feces (pellets adhered to the side wall of the collector due to moisture); 3, soft feces (loss the normal shape of the pellets); 4, loose and amorphous (completely loss shape, with blot pattern); 5, diarrhea (watery feces). Fecal form score (FFS) in rats was determined by averaging two independent observation scores for all rats within the same group (n=5); the vehicle group mean was 1.
# The urine was centrifuged at 3220 g for 5 minutes at 4° C., and the urinary phosphorus concentration (phosphomolybdic acid UV endpoint colorimetric method) and urinary sodium concentration (ion selective electrode method) were measured.
# (§1) Results were indicated as mean±standard error (Means±SEM). Urinary phosphorus excretion amount (or urinary sodium excretion amount) in rats was standardized corrected against respective dietary phosphorus (or sodium) intake, and the formula was: standardized correction value of urinary phosphorus excretion amount (indicated as nP)=urinary phosphorus excretion amount÷dietary phosphorus intake amount; standardized correction value of urinary sodium excretion amount (indicated as nNa)=urinary sodium excretion amount÷dietary sodium intake amount; fecal form score was analyzed by monofactorial variance, and verified by non-parametric test. *, p<0.05; **, p<0.01; * p<0.001; ****, p<0.0001.
# Sprague-Dawley rats [2] = assay: Effects of multiple administrations on serum phosphorus concentration in rats; format: in vivo, rat; conditions: for 24 h nP, course: after 15 days
# Procedure: Compound D1-P1-S was evaluated by measuring serum phosphorus concentration, urinary phosphorus, urinary sodium concentration and fecal form in rats.
# Six-week-old Sprague-Dawley rats were purchased from Beijing Vital River Laboratory Animal Technology Co., Ltd. Two animals per cage were placed in SPF class animal rooms for acclimatization for about a week. Throughout the study period, animals were fed feed and water freely and the light cycle was 12 h light/12 h dark. Animal groups: vehicle group, n=5; Tenapanor 0.05 mg/kg, n=5; D1-P1-S 0.01 mg/kg, n=5; D1-P1-S 0.05 mg/kg, n=5; D1-P1-S 0.5 mg/kg, n=5; D1-P1-S 1.0 mg/kg, n=5.
# After the start of the experiment, the feeding rhythm of the rats was adjusted to diurnal feeding by fasting overnight for 16 hours and recovering feed for 8 hours during the day. After the administration started, the test compound or the solvent (0.5% Tween 80+99.5% distilled water) was gavaged twice a day during the feeding period, with an interval of 4 hours, for 14 consecutive days. Animal body weight and food consumption were measured every day, serum phosphorus concentration (including baseline value before administration), 24-hour urinary phosphorus excretion amount, and 24-hour urinary sodium excretion amount were measured 1-2 times a week, and feces form in the collection funnel was scored (through two independent observations to assess fecal form). Standard for fecal form score: 1, normal pellets; 2, slightly soft feces (pellets adhered to the side wall of the collector due to moisture); 3, soft feces (loss the normal shape of the pellets); 4, loose and amorphous (completely loss shape, with blot pattern); 5, diarrhea (watery feces). Fecal form score (FFS) in rats was determined by averaging two independent observation scores for all rats within the same group (n=5); the vehicle group mean was 1.
# After standing at room temperature for 2 hours, the blood was centrifuged at 4500 g for 10 minutes at 4° C.; and the urine was centrifuged at 3220 g for 5 minutes at 4° C., and the serum phosphorus concentration and urinary phosphorus concentration (phosphomolybdic acid UV endpoint colorimetric method), urinary sodium concentration (indirect ion electrode method) were measured.
# as §1, with “error (Means±SEM), n=5 animals/group.” for “error (Means±SEM).”, “by two-way” for “by monofactorial”, “p<0.01; ***,” for “p<0.01; *”, “****, p<[…].” for “****, p<0.0001.”
# [3] = 1 day of treatment at 0.01, 0.05, 0.5 and 1.0 mg/kg
smiles,measurement,setting,value
CN1Cc2c(Cl)cc(Cl)cc2C(c2ccc3cn(CCOCCOCCNC(=O)NCCCCNC(=O)NCCOCCOCCn4cc5ccc([C@@H]6CN(C)Cc7c(Cl)cc(Cl)cc76)cc5n4)nc3c2)C1 (stereo partly drawn) [Embodiment D1-P1-S],"urinary phosphorus excretion amount, dose dependence","Sprague-Dawley rats [1]; single gavage 0.03-1.0 mg/kg, urine collected after 16 hours",dose-effect relationship
same,urinary sodium excretion amount,"Sprague-Dawley rats [1]; single gavage, 16 h urine",significantly reduce
same,urinary phosphorus excretion amount,"Sprague-Dawley rats [1]; single gavage, doses of 0.3 mg/kg and 1.0 mg/kg, 16 h urine",significantly reduce
same,effect in reducing urinary phosphorus excretion amount compared with Tenapanor,"Sprague-Dawley rats [1]; single gavage, same dose (0.3 mg/kg)",better than Tenapanor
same,water content in rat feces (fecal form),"Sprague-Dawley rats [1]; single gavage, with increasing dose",tendency of increasing
same,24 h nNa (urinary sodium excretion / dietary sodium intake) vs solvent group,Sprague-Dawley rats [2]; [3],decreased significantly
same,24 h nP (urinary phosphorus excretion / dietary phosphorus intake) vs solvent group,Sprague-Dawley rats [2]; [3],tended to decrease
same,fecal form score vs solvent control,"Sprague-Dawley rats [2]; 1 day of treatment at 0.05, 0.5 and 1.0 mg/kg",significantly increased
same,24 h nP vs solvent group,"Sprague-Dawley rats [2]; 1 day of treatment, 1.0 mg/kg",significantly decreased
same,24 h nP vs solvent group,"Sprague-Dawley rats [2]; 10 days of treatment at 0.01, 0.05, 0.5 and 1.0 mg/kg",decreased significantly
same,24 h nNa,"Sprague-Dawley rats [2]; after 10 days of treatment, 0.01 mg/kg and 0.05 mg/kg",increasing trend
same,"24 h nP, course",Sprague-Dawley rats [2],tended to be stable
same,"24 h nP, course",Sprague-Dawley rats [2]; low dose group (0.01 mg/kg),tended to increase
same,"serum phosphorus, course after 10 days",Sprague-Dawley rats [2]; all dose groups except the highest dose group of 1.0 mg/kg,tended to be stable
same,serum phosphorus concentration vs solvent control,"Sprague-Dawley rats [2]; gavage twice a day, 0.5 mg/kg or 1.0 mg/kg for 4 days",significantly decreased
same,loose feces,"Sprague-Dawley rats [2]; high doses of 0.5 mg/kg and 1.0 mg/kg, observed less often as administration continued",more severe loose feces
same,loose feces,Sprague-Dawley rats [2]; low dose of 0.01 mg/kg,no rats had loose feces
same,serum phosphorus concentration vs solvent control,"Sprague-Dawley rats [2]; twice a day, 10 days of treatment at 0.01, 0.05, 0.5, 1.0 mg/kg",decreased significantly
